According to PMC9021288 (Nature Communications, 2022):
Values joined by “and” are separate entries in the source; they are usually repeats but may differ in a detail not shown here. Equal entries are not always repeated. Where two headings read alike, the source gives them in different places.

How the values were obtained:
[1] = test system: P. falciparum NF54-HGL gametocytes; set-up: method as in earlier work; conditions: ref 15 (Schalkwijk et al.); read-out: Gametocyte IC50; cited from earlier work
[2] = test system: cryopreserved human primary hepatocytes; assay: in vitro; conditions: human, hepatocytes
From the text: Briefly, cryopreserved human primary hepatocytes were thawed and cultured as described above.

[3] = test system: P. falciparum NF54-HGL gametocytes; assay: Gametocyte viability assay (72 h, luminescence); format: cell-based, Plasmodium falciparum; conditions: NF54-HGL
Protocol: (§1) Gametocyte viability assays on NF54-HGL parasites were performed using an adapted high-throughput protocol as previously described[15],[64]. In short, asexual blood-stage parasite cultures were set up at 1% parasitemia in a semi-automated shaker system at 5% hematocrit. From day four until day eight or nine, parasites were treated with 50 mM N-acetyl glucosamine to eliminate all asexual blood-stage parasites. Subsequently, gametocytes were isolated by a Percoll density gradient centrifugation. At day 11, gametocytes were seeded (5,000 per well) in 30 µl in white 384-well plates containing 30 µl of compounds diluted in medium (0.1% DMSO). After a 72-h incubation, 30 µl of ONE-Glo reagent (Promega) was added according to manufacturer’s protocol and luminescence was quantified using the BioTek Synergy 2 Plate reader. Values were normalized to DMSO- and epoxomicin or dihydroartemisinin-treated controls.

[4] = test system: P. falciparum Pf3D7^0087/N9; assay: Single dose in vivo efficacy in humanized NSG mice; set-up: species or system Plasmodium falciparum
Protocol: The effect of pantothenamides on P. falciparum Pf3D7^0087/N9 [66] in vivo was assessed in female NSG mice (NODscidIL2Rγ^null) at the Swiss Tropical and Public Health Institute (Basel, Switzerland) as described previously (Supplementary Table 30)[15],[67]. Briefly, humanized mice were engrafted daily with human erythrocyte suspensions from days -11 to day 6. […] On day 4, groups of n = 2 mice were treated with a single dose pantothenamides or chloroquine (50 mg/kg) by oral gavage. […] Serial dilutions were prepared in the same solvent to concentrations 50 times higher than the corresponding CAL and QC concentrations. The concentrations were calculated under consideration of purity and salt factor. The spiking of the CAL and QC sample were performed at room temperature.

[5] = test system: P. falciparum T648M / T627A AcAS mutant gametocytes; format: cell-based, Plasmodium falciparum
Protocol: as §1

[6] = test system: P. falciparum NF54-HGL, dT648M, cT648M, cT627A asexual blood stages; assay: Asexual drug-sensitivity of AcAS mutant parasites; format: cell-based, Plasmodium falciparum; set-up: key to asexual blood stages growth, dose-response: % growth; DMSO control = 100%, DHA/epoxomicin = no growth
Protocol: Replication assays were performed using a SYBR Green method as described previously. Briefly, asynchronous parasites were diluted to 0.83% parasitemia, 3% hematocrit in 30 µl medium, and added to 30 µl of diluted compounds in medium (0.1% DMSO final concentration) in black 384-wells plates. After a 72-h incubation, 30 µl of SYBR Green diluted in lysis buffer was added according to the manufacturer’s protocol (Life Technologies). Fluorescence intensity was measured on a BioTek Synergy 2 Plate Reader after 1-h incubation and was normalized to a DMSO control (100% growth) and DHA- or epoxomicin-treatment (no growth). […] Parasite survival was assessed by flow cytometry on an Accuri C6 (BD Biosciences) with BD C6 Plus software using SYBR Green and MitoTracker Deep Red FM (Life Technologies) as nuclear stain and vital dye, respectively, and data were analyzed using FlowJo (10.5.0). […] Luminescence was measured after 72 h using the Renilla-Glo(R) Luciferase Assay System (Promega E2750) and the GlomAX® Discover Multimode Microplate Reader (Promega). The luminescence values were normalized to DMSO vehicle (100% growth) and 200 nM chloroquine-treated (no growth) samples as controls.
The mutation found in selected drug-resistant parasites was verified by introducing the point mutations in AcAS (T648M and T627A) in NF54-HGL parasites using a CRISPR-Cas9 system as described previously. The oligonucleotides for the guide RNA and the donor template were cloned into a pDC2-based plasmid containing a Cas9 and guide cassette, using the BbsI and EcoRI/AatII restriction sites, respectively. Donor DNA was amplified by (overlap-extension) PCR amplification from genomic P. falciparum DNA and oligonucleotides for the guide RNAs were ordered (Sigma-Aldrich). The correct sequence and integration of both inserts were confirmed by Sanger Sequencing.

[7] = cT627A, Log concentration (M) -7.5
[8] = cT627A, Log concentration (M) -8
[9] = cT627A, Log concentration (M) -8.5
[10] = cT627A, Log concentration (M) -9
[11] = cT627A, Log concentration (M) -9.5
[12] = cT627A, Log concentration (M) -10
[13] = cT648M, Log concentration (M) -6
[14] = cT648M, Log concentration (M) -6.5
[15] = cT648M, Log concentration (M) -7
[16] = cT648M, Log concentration (M) -7.5
[17] = cT648M, Log concentration (M) -8
[18] = cT648M, Log concentration (M) -8.5
[19] = cT648M, Log concentration (M) -9
[20] = cT648M, Log concentration (M) -9.5
[21] = cT648M, Log concentration (M) -10
[22] = dT648M, Log concentration (M) -6
[23] = dT648M, Log concentration (M) -6.5
[24] = dT648M, Log concentration (M) -7
[25] = dT648M, Log concentration (M) -7.5
[26] = dT648M, Log concentration (M) -8
[27] = dT648M, Log concentration (M) -8.5
[28] = dT648M, Log concentration (M) -9
[29] = dT648M, Log concentration (M) -9.5
[30] = dT648M, Log concentration (M) -10

CC(CNC(=O)C(O)C(C)(C)CO)NC(=O)CCc1ccccc1F (stereo in doubt) [MMV689258]
IC50 [1]: 0.012 µM
Human hepatocyte CLint [2]: 0.8 µl/min/10^6 cells
gametocyte viability, dose-response ([3]; Log concentration (M) -8): 82.05 and 46 and 45.3
gametocyte viability, dose-response ([3]; Log concentration (M) -8.5): 95.95 and 82.9 and 64.1
gametocyte viability, dose-response ([3]; Log concentration (M) -9): 97.75 and 94.05 and 92.15
gametocyte viability, dose-response ([3]; Log concentration (M) -9.5): 104.7 and 93.15 and 94.35
gametocyte viability, dose-response ([3]; Log concentration (M) -10): 106.25 and 112.55 and 90.95
Parasitemia ([4]; day 5 post infection, 50 mg/kg p.o. on day 4, per mouse, 50 mg/kg): 0.26 and 0.2
Parasitemia ([4]; day 6 post infection, per mouse): 0.15 and 0.1
Parasitemia ([4]; day 7 post infection, per mouse): 0.22 and 0.12
parasitemia outcome ([4]; single 50 mg/kg oral gavage on day 4, over three days): not fully cleared
gametocyte viability, dose-response ([5]; cT627A, Log concentration (M) -6): 54.65 and 65.95 and 38.25
gametocyte viability, dose-response ([5]; cT627A, Log concentration (M) -6.5): 66.35 and 84.15 and 69.3
gametocyte viability, dose-response ([5]; cT627A, Log concentration (M) -7): 85 and 95.75 and 66.7
gametocyte viability, dose-response [5, 7]: 95.85 and 91.8 and 94.3
gametocyte viability, dose-response [5, 8]: 92.9 and 96.45 and 100.2
gametocyte viability, dose-response [5, 9]: 84.65 and 95.2 and 101.25
gametocyte viability, dose-response [5, 10]: 97.55 and 97.85 and 111.3
gametocyte viability, dose-response [5, 11]: 87.2 and 101.95 and 102.75
gametocyte viability, dose-response [5, 12]: 85.8 and 97.9 and 99.85
gametocyte viability, dose-response [5, 13]: 103.9 and 89.5 and 90.75
gametocyte viability, dose-response [5, 14]: 103.05 and 97.85 and 100.35
gametocyte viability, dose-response [5, 15]: 99.3 and 92.85 and 107.7
gametocyte viability, dose-response [5, 16]: 98.25 and 95.25 and 103.7
gametocyte viability, dose-response [5, 17]: 84.9 and 96.6 and 106.6
gametocyte viability, dose-response [5, 18]: 104.05 and 98.15 and 101
gametocyte viability, dose-response [5, 19]: 97.2 and 88.65 and 97.7
gametocyte viability, dose-response [5, 20]: 106.45 and 88.2 and 104.1
gametocyte viability, dose-response [5, 21]: 102.75 and 101.9 and 108.55
gametocyte viability, dose-response [5, 22]: 104.25
gametocyte viability, dose-response [5, 23]: 95.5
gametocyte viability, dose-response [5, 24]: 100.05
gametocyte viability, dose-response [5, 25]: 101.95
gametocyte viability, dose-response [5, 26]: 95.3
gametocyte viability, dose-response [5, 27]: 102.85
gametocyte viability, dose-response [5, 28]: 93.8
gametocyte viability, dose-response [5, 29]: 107.4
gametocyte viability, dose-response [5, 30]: 95.7
asexual blood stages growth, dose-response ([6]; NF54-HGL, Log concentration (M) -9): 76.1 and 93.6 and 100.55
asexual blood stages growth, dose-response ([6]; NF54-HGL, Log concentration (M) -9.5): 86.25 and 83.5 and 106.05
asexual blood stages growth, dose-response ([6]; NF54-HGL, Log concentration (M) -10): 96.25 and 97.9 and 112.35
asexual blood stages growth, dose-response [6, 7]: 91.7 and 68.35 and 87.5
asexual blood stages growth, dose-response [6, 8]: 98.75 and 75.4 and 102
asexual blood stages growth, dose-response [6, 9]: 98.95 and 109.7 and 103.8
asexual blood stages growth, dose-response [6, 10]: 93.85 and 110.4 and 101.9
asexual blood stages growth, dose-response [6, 11]: 95.15 and 100.65 and 102.3
asexual blood stages growth, dose-response [6, 12]: 92.1 and 102.75
asexual blood stages growth, dose-response [6, 13]: 85.3 and 76.95 and 95.6
asexual blood stages growth, dose-response [6, 14]: 97.25 and 93 and 109.55
asexual blood stages growth, dose-response [6, 15]: 112 and 98.45 and 99.1
asexual blood stages growth, dose-response [6, 16]: 108.7 and 101 and 101.4
asexual blood stages growth, dose-response [6, 17]: 108.05 and 99.35 and 97.85
asexual blood stages growth, dose-response [6, 18]: 99.1 and 110.25 and 104.05
asexual blood stages growth, dose-response [6, 19]: 88.2 and 96.6 and 106.85
asexual blood stages growth, dose-response [6, 20]: 95.65 and 97.35 and 100.3
asexual blood stages growth, dose-response [6, 21]: 86.35 and 97.9 and 99.6
asexual blood stages growth, dose-response [6, 22]: 86.55
asexual blood stages growth, dose-response [6, 23]: 89.25
asexual blood stages growth, dose-response [6, 24]: 95.15
asexual blood stages growth, dose-response [6, 25]: 99.65
asexual blood stages growth, dose-response [6, 26]: 89.85
asexual blood stages growth, dose-response [6, 27]: 92.65
asexual blood stages growth, dose-response [6, 28]: 97.45
asexual blood stages growth, dose-response [6, 29]: 97
asexual blood stages growth, dose-response [6, 30]: 99.15
